For series [1] the following is noted: in vivo; cited from earlier work.
Another series relates to glioma lines. To be noted: in vitro; cited from earlier work.
The test system of series [2] is 9L. Put plainly: Intracranial local drug delivery by polymer implant in rat glioma model, median survival (Table 1 summary). To be noted: in vivo.
The conditions of series [3]: cited from earlier work.
A short description of series [4]: Intracranial local drug delivery by polymer implant in rat glioma model, P98 cells injected (Table 1 summary). The series is classed as in vivo. To be noted: p(FAD:SA) 5% load. From the text: Table 1 is a summary of studies on intracranial local drug delivery in rat glioma models, as described in the following examples.
In series [5] the test system is melanoma and advanced gastrointestinal carcinoma. As to conditions: human, in vivo; cited from earlier work.
In the next series the test system is L1210. To be noted: in vitro; cited from earlier work.
For another series, the system named is JH1. Nature of the series: Clonogenic assay, camptothecin. In kind it is cell-based. To be noted: Homo sapiens; for IC100: read-out: concentration for total cell kill. From the text: (§1) Tumor cell lines. […] The F98 glioma cells were provided by Dr. Joseph Goodman, Department of Neurosurgery, Ohio State University, Columbus, Ohio. The human glioma cell lines U87 and U373 were provided by Dr. O. Michael Colvin, Johns Hopkins University School of Medicine, Baltimore, Md. JH1 is a cell line established from a biopsy specimen from a patient with a pathologically confirmed glioblastoma multiform.
Cell culture of freshly biopsied gliomas. Biopsy samples were obtained from the operating room and transported in sterile specimen containers. Specimens were filtered through a 230 μm mesh collector screen (Bellco Glass, Inc., Vineland, N.J.) with use of a glass pestle. The specimen was then centrifuged at 1000 rpm for 10 minutes. The supernatant fraction was discarded and the cell pellet was resuspended in a 1 ml of minimum essential medium (Gibco BRL, Grand Island, N.Y.) with 10% fetal bovine serum, 0.5% L-glutamine, penicillin (base; 80.5 units/ml), and streptomycin (80.5 μg/ml). The suspension was passed through a 25 gauge needle, after which it was recentrifuged at 1000 rpm for 5 minutes. The supernatant fraction was discarded and the pellet was resuspended in 5 ml of medium. This suspension was plated onto T75 culture flasks at various dilutions and incubated at 37° C. The medium was changed approximately every 3 days. When the initial culture reached confluence, the cells were trypsinized and passaged. Sensitivity was assessed by the clonogenic assay below, beginning with the second passage.
(§2) Clonogenic assay. The sensitivity of each glioma cell line was tested in a clonogenic assay. At confluence, the cells were trypsinized and plated at 400 cells per 60 mm well. After 24 hours, fresh medium containing camptothecin at various concentrations was added. For brief exposure experiments, the camptothecin was removed and replaced with fresh medium after 1 hour; for continuous exposure, medium was left in place for 7 days. At 7 days, all plates were fixed and stained with coomassie brilliant blue (Bio Rad, Richmond, Calif.). Colonies containing more than 50 cells were identified and counted. Treatments were performed in triplicate. Survival was calculated as the number of colonies formed by the treated cells relative to the number of colonies formed by the untreated cells.

For the next series, the system named is U87. Nature of the series: Clonogenic assay, camptothecin. The series is classed as cell-based, human. How it is done: as §1, §2
The test system of series [6] is F98, 9L, U87, U373, JH1 cell lines. Put plainly: In vitro efficacy of camptothecin on several cell lines (clonogenic assay). The series is classed as cell-based. To be noted: 168 h; rat and established human cell lines, continuous exposure; read-out: LD90 after continuous exposure.
From the text: as §1
Cell culture of freshly biopsied gliomas. Biopsy samples were obtained from the operating room and transported in sterile specimen containers. Specimens were filtered through a 230 μm mesh collector screen (Bellco Glass, Inc., Vineland, N.J.) with use of a glass pestle. The specimen was then centrifuged at 1000 rpm for 10 minutes. The supernatant fraction was discarded and the cell pellet was resuspended in a 1 ml of minimum essential medium (Gibco BRL, Grand Island, N.Y.) with 10% fetal bovine serum, 0.5% L-glutamine, penicillin (base; 80.5 units/ml), and streptomycin (80.5 μg/ml). […] Sensitivity was assessed by the clonogenic assay below, beginning with the second passage.
Clonogenic assay. […] Colonies containing more than 50 cells were identified and counted. […] Survival was calculated as the number of colonies formed by the treated cells relative to the number of colonies formed by the untreated cells.

For series [7] the following is noted: sodium salt formulation; cited from earlier work.
In series [8] the test system is rat Walker 256 carcinosarcoma. To be noted: in vitro; cited from earlier work.
Another series deals with topoisomerase I. As to conditions: cited from earlier work.
For the next series, the system named is F98. Nature of the series: Clonogenic assay, camptothecin. In kind it is cell-based. As to conditions: Rattus norvegicus. The protocol:
as §1, §2

Series [9] relates to 9L. Put plainly: Clonogenic assay, camptothecin. The series is classed as cell-based. To be noted: Rattus norvegicus. The protocol: as §1, §2
A further series concerns U373. Nature of the series: Clonogenic assay, camptothecin. To be noted: Homo sapiens, U373 MG. In kind it is cell-based. How it is done:
as §1, §2

Setting [10] is: 1 h, read-out: LD90 1 Hour Exposure.
[11] abbreviates: 168 h, continuous exposure, 7 days, read-out: LD90 Continuous Exposure.

“And” between values parts separate entries of the source, which are not always exact repeats. Identical values can stand only once. Like-named read-outs stand apart in the source and are kept apart here. Bounds are passed on as bounds.

For `COc1cccc2c1C(=O)c1c(O)c3c(c(O)c1C2=O)C[C@@](O)(C(=O)CO)C[C@@H]3O[C@H]1C[C@H](N)[C@H](O)[C@H](C)O1` [Adriamycin], the cardiac toxicity result in [1] is given as “significant dose related cardiac toxicity”. In addition, in the series with glioma lines, the sensitivity of gliomas result is recorded as “highly sensitive”.

For `O=NN(CCCl)C(=O)NCCCl` [BCNU, 1,3-bis(2-chloroethyl)-1-nitrosourea], in the series on 9L [2], the “% increase survival” value was 634% and 437%. Also, the “Median survival in days, Rx group” value in the series on 9L [2] is 80 and 62.3. Besides, the figures for the “radius from implant within which BCNU is detectable” value in [3] (21 days after implantation) and in series [3] (Day 7) were not above 3 mm and not above 40 mm, respectively. Besides, in series [3] (PCPP-SA (20:80), initially, read-out: average concentration in brain), the concentration was 8000 µM. Further, the “amount of brain exposed to BCNU” value in [3] (over time) is given as “decrease after three days”.

For `N.N.O=C([O-])C1(C(=O)[O-])CCC1.[Pt+2]` [Carboplatin], the “% increase survival” value in series [4] (Rx day 5) stood at 225%. Further, in [4] (Rx day 5, 1 × 10^5 cells injected, controls 16, n = 18), the “Median survival in days, Rx group” value amounted to 52 days.

As to `CC[C@@]1(O)C(=O)OCc2c1cc1n(c2=O)Cc2cc3ccccc3nc2-1` [camptothecin, 4-ethyl-4-hydroxy-1H-pyrano[3',4':6,7]indolizino[1,2-b] quinoline-3,14(4H,12H)-dione], the systemic toxicity entry in series [5] is reported as “unexpectedly severe systemic toxicity”. For the same molecule, in [5], the tumoral responses entry is recorded as “poor tumoral responses”. The cytotoxic anti-tumor activity result (in the series on L1210; in [8]) was “strong cytotoxic anti-tumor activity” in each case. Moreover, the IC90 in the series on JH1 (setting [10]) is 0.1 µM; with JH1 (setting [11]) it was 0.026 µM; with U87 (1 hour exposure, 60 min, read-out: LD90 1 Hour Exposure), 1.4 µM; in the series with U87 (Homo sapiens, U-87 MG, 1 h, 1 hour exposure, read-out: LD90 1 Hour Exposure) it was 1.2 µM; with U87 (Homo sapiens, U-87 MG, 168 h, continuous exposure, 7 days, read-out: LD90 Continuous Exposure), 0.1 µM; in series [6], not above 0.1 µM. For the same molecule, the IC90 is 1.4 µM with F98 (F98, 1 h, read-out: LD90 1 Hour Exposure); 0.1 µM with F98 (F98, 168 h, continuous exposure, 7 days, read-out: LD90 Continuous Exposure); 1.4 µM with 9L [9] (setting [10]); 0.1 µM in the series with 9L [9] (setting [11]); 0.3 µM in the series on U373 (setting [10]); 0.026 µM in the series on U373 (setting [11]). The IC100 is 0.14 µM with JH1 (1-hour exposure) and 0.03 µM with JH1 (continuous exposure). Also, in [7], the protein binding result is given as “strongly protein-bound”. Besides, in the series on topoisomerase I, the “inhibition of topoisomerase I” value is “irreversibly inhibiting”.

As to `CN(C)c1ccc(O)c2c1C[C@H]1C[C@H]3[C@H](N(C)C)C(O)=C(C(N)=O)C(=O)[C@@]3(O)C(O)=C1C2=O` [minocycline], in the series with 9L [2], the “% increase survival > no Rx” value is 330%. The “% increase survival > ip BCNU” value with 9L [2] (ip) is reported as 93%.
